From paper PMC4104309, “Estradiol Binds to Insulin and Insulin Receptor Decreasing Insulin Binding in vitro” (Frontiers in Endocrinology, 2014)
Values joined by “and” are separate entries in the source; they are usually repeats but may differ in a detail not shown here. Identical values can stand only once. Counter-ions that a name gives are not always drawn. Like-named read-outs stand apart in the source and are kept apart here.

Tests used:
[1] = target: recombinant human insulin (Humulin) (Homo sapiens, UniProt P01308); assay: UV spectroscopy binding of sex hormones to recombinant human insulin (Humulin); conditions: for Binding to INS (in words): UV spectroscopic studies, discussion summary
recombinant human insulin (Humulin), sequence (P01308 with tags, fused parts or gaps): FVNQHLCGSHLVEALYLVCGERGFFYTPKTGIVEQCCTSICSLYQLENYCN
recombinant human insulin (Humulin), sequence (P01308 with tags, fused parts or gaps): as above

[2] = target: oxidized insulin B chain (Insulin beta chain) (Bos taurus, UniProt P01317); assay: UV spectroscopy binding to oxidized insulin B chain; conditions: read-out: Binding constant to individual oxidized INS B chain
oxidized insulin B chain (Insulin beta chain), sequence (P01317 25-54): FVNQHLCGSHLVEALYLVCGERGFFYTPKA
Description: (§1) Additions were made serially.

[3] = target: T1, IR α 424–441 peptide of the human insulin receptor (Homo sapiens, UniProt P06213); assay: UV spectroscopy binding to insulin receptor peptide IR α 424–441
T1 construct: IR α 424–441; made in house; host or cells: chemical peptide synthesis (Michigan State University facility)
Description: Humulin R was obtained from Lilly.

[4] = target: human INS-like growth factor receptor (IGFR) (Homo sapiens, UniProt P08069); assay: UV spectroscopy (serial addition) binding of estradiol to IGFR; conditions: human recombinant IGFR, biphasic
human INS-like growth factor receptor (IGFR), sequence (P08069 with tags, fused parts or gaps): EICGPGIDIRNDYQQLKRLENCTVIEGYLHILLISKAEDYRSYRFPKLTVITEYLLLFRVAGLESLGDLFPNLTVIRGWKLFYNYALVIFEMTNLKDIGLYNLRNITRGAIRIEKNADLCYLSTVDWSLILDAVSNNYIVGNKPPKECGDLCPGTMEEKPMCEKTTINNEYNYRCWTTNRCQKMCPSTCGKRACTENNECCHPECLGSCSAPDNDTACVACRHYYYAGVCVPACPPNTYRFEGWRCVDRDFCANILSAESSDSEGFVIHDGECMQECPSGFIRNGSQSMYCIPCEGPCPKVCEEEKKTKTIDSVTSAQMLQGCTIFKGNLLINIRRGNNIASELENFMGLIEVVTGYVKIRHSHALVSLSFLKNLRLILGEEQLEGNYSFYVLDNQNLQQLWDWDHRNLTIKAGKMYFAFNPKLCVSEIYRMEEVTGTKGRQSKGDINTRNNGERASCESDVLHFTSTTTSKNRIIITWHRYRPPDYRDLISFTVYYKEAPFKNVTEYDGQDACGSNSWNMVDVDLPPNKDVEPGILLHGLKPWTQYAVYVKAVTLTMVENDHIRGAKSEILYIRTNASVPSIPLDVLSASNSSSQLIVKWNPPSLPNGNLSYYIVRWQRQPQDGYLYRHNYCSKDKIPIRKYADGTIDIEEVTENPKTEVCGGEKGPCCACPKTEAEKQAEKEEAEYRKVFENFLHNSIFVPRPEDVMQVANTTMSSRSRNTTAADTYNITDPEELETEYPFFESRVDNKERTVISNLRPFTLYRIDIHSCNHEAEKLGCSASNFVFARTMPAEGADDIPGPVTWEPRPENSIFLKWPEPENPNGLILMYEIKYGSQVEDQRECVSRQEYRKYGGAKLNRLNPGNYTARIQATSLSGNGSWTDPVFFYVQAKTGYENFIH
Method: Rat IR membrane preparation (I-9266) (IR) and human INS-like growth factor receptor (IGFR) (I-4657) were obtained from Sigma-Aldrich. The rat IR was a partially purified preparation in residual membrane and contained 250 units of activity as measured by its ability to catalyze the incorporation of 1 pmol per min of phosphate from γ-^32P-ATP into poly(Glu, Tyr), 4:1, at 30°C. The IGFR was recombinant, at least 95% pure by SDS-PAGE, and capable of binding INS-like growth factor. Both receptor preparations, in sum, retained activity.
as §1
This serial addition method was also used to determine the binding of estradiol to IR and IGFR.

[5] = Concentration of E2 in E2-saturated buffer with INS–HRP or IR, by capillary electrophoresis; format: physicochemical; conditions: crystals in buffer, at least 48 h room temperature; CE read-out
INS binding [6] = conditions: 1 mg dose of E2, within 24 h; ref Hilf et al. ([80]); cited from earlier work
INS binding [7] = conditions: 10^−8 M 17β-estradiol in the culture medium; ref Hilf et al. ([80]); cited from earlier work
Glucagon = Glucagon (Homo sapiens, UniProt P01275); assay: UV spectroscopy binding to glucagon (control)
Glucagon, sequence (P01275 53-81): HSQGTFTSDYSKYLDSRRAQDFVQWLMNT

[8] = target: oxidized insulin A chain (Insulin alpha chain) (Bos taurus, UniProt P01317); assay: UV spectroscopy binding to oxidized insulin A chain
oxidized insulin A chain (Insulin alpha chain), sequence (P01317 85-105): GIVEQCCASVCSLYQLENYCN

[9] = target: IR α 91–103 peptide of the human insulin receptor (Homo sapiens, UniProt P06213); assay: UV spectroscopy binding to insulin receptor peptide IR α 91–103
[10] = target: IR α 105–118 peptide of the human insulin receptor (Homo sapiens, UniProt P06213); assay: UV spectroscopy binding to insulin receptor peptide IR α 105–118
[11] = target: IR α 223–234 peptide of the human insulin receptor (Homo sapiens, UniProt P06213); assay: UV spectroscopy binding to insulin receptor peptide IR α 223–234
[12] = target: IR α 233–248 peptide of the human insulin receptor (Homo sapiens, UniProt P06213); assay: UV spectroscopy binding to insulin receptor peptide IR α 233–248
[13] = target: IR α 284–300 peptide of the human insulin receptor (Homo sapiens, UniProt P06213); assay: UV spectroscopy binding to insulin receptor peptide IR α 284–300
[14] = target: IR α 392–404 peptide of the human insulin receptor (Homo sapiens, UniProt P06213); assay: UV spectroscopy binding to insulin receptor peptide IR α 392–404
[15] = target: IR α 453–464 peptide of the human insulin receptor (Homo sapiens, UniProt P06213); assay: UV spectroscopy binding to insulin receptor peptide IR α 453–464
[16] = target: IR β 897–916 peptide of the human insulin receptor (Homo sapiens, UniProt P06213); assay: UV spectroscopy binding to insulin receptor peptide IR β 897–916
IR β 897–916 peptide of the human insulin receptor, sequence (P06213 897-916 limits assumed): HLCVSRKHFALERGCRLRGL

Human recombinant INS = assay: Capillary electrophoresis: E2 in solution with and without insulin; conditions: mean ± SD of the five EI/E ratios (10, 15, 20, 25, 30 kV)
[17] = test system: insulin receptor (IR) isolated from rat liver; assay: Enzyme-linked INS binding assay: effect of E2 on INS–HRP binding to IR
[18] = UV spectroscopy, peptide 100 nM in pH 7.4 phosphate buffer, 30 min room temperature, duplicates averaged
[19] = Binding constant to recombinant human INS, UV spectroscopy

Row | Compound | Kd [1] [µM] | Kd [9] [µM] | Kd [10] [µM] | Kd [11] [µM] | Kd [12] [µM] | Kd [13] [µM] | Kd [14] [µM] | Kd [15] [µM] | Kd [16] [µM] | also measured
1 | C[C@]12CC[C@@H]3c4ccc(O)cc4CC[C@H]3[C@@H]1CC[C@H]2O [17α-Estradiol] | 10 | – | – | – | – | – | – | – | – | Binding to INS (in words), serial additions ([1]; UV spectroscopy, serial additions, even at 1 μM (Figure 2)): does not bind significantly
2 | C[C@]12CC[C@@H]3c4ccc(O)cc4CC[C@H]3[C@@H]1CC[C@@H]2O [17β-Estradiol (E2), 17β-Estradiol] | 0.012 | 120 | 280 | > 500 | > 500 | 0.9 | > 500 | > 500 | 0.78 | Kd [2]: 150 µM; Kd [3, 18]: > 500 µM; Kd ([4]; read-out: Binding to IGFR, high affinity binding): ~0.1 µM; Kd ([4]; read-out: Kd to IGFR, lower affinity binding): > 10 µM; Concentration of E2 in E2-saturated phosphate buffer in the presence of INS or IR [5]: ca. 60 ng/ml; Decrease of INS binding in rats (INS binding [6]): ≤ 50%; Decrease of INS binding in cell culture (INS binding [7]): ~ 20%; Binding to glucagon (in words) (Glucagon): does not bind with measurable affinity; Binding to the insulin A chain (in words), serial additions ([8]; UV serial addition, 1000 times the concentration of E2 used in Figure 2 (Figure 3)): no binding was apparent; Kd ([8]; read-out: Binding constant to individual oxidized INS A chain, UV spectroscopy): 220 µM; EI/E ratio, mean ± SD (Human recombinant INS): 3.96 ± 0.45; Shift of INS–HRP/IR binding curve to the right ([17]; E2 incubated with either INS–HRP or the IR alone, E2 initially 200 nM, about 22 nM at curve mid-point, duplicates averaged): half; Shift of INS–HRP/IR binding curve to the right ([17]; both the IR and INS–HRP exposed to E2, E2 about 22 nM at curve mid-point): 0.8 log units; Kd ([1]; Binding constant (Kd) to INS, high affinity binding, UV spectroscopy): ~0.012 µM and 0.012 µM; Kd ([1]; read-out: Binding constant to INS, low affinity binding, UV spectroscopy, biphasic binding): 65 µM
3 | C[C@]12CCC(=O)C=C1CC[C@@H]1[C@@H]2CC[C@]2(C)C(=O)CC[C@@H]12 [Andro-stenedione, 4-andro-stenedione] | 13.5 | > 500 | > 500 | > 500 | > 500 | > 500 | > 500 | > 500 | > 500 | Kd [3]: > 500 µM
4 | CC(C)CCC[C@@H](C)[C@H]1CC[C@H]2[C@@H]3CC=C4C[C@@H](O)CC[C@]4(C)[C@H]3CC[C@]12C [Cholesterol] | > 500 | > 500 | > 500 | > 500 | > 500 | > 500 | > 500 | > 500 | > 500 | –
5 | C[C@]12C[C@H](O)[C@H]3[C@@H](CCC4=CC(=O)CC[C@@]43C)[C@@H]1CC[C@@H]2C(=O)CO [Corticosterone] | 21.1 | – | – | – | – | – | – | – | – | –
6 | C[C@]12CC[C@@H]3c4ccc(O)cc4CC[C@H]3[C@@H]1C[C@@H](O)[C@@H]2O [Estriol] | > 500 | > 500 | > 500 | > 500 | > 500 | > 500 | > 500 | 390 | > 500 | Kd [3, 18]: 380 µM; Kd [1, 19]: > 500 µM
7 | C[C@]12CC[C@@H]3c4ccc(O)cc4CC[C@H]3[C@@H]1CCC2=O [Estrone] | 1.25 | > 500 | > 500 | > 500 | > 500 | > 500 | > 500 | > 500 | > 500 | Kd [3, 18]: > 500 µM
8 | O=c1c(-c2ccc(O)cc2)coc2cc(O)cc(O)c12 [Genistein] | > 500 | – | – | – | – | – | – | – | – | Binding to INS (in words) [1]: negligible binding
9 | C[C@]12CCC(=O)C=C1CC[C@@H]1[C@@H]2[C@@H](O)C[C@@]2(C)[C@H]1CC[C@]2(O)C(=O)CO [Hydrocortisone] | 63.5 | – | – | – | – | – | – | – | – | –
10 | CC(=O)[C@H]1CC[C@H]2[C@@H]3CC=C4C[C@@H](O)CC[C@]4(C)[C@H]3CC[C@]12C [Pregnenolone, 5-Pregnen-3β-ol-20-one] | – | – | – | – | – | – | – | – | – | Kd [3, 18]: > 500 µM
11 | CC(=O)[C@H]1CC[C@H]2[C@@H]3CCC4=CC(=O)CC[C@]4(C)[C@H]3CC[C@]12C [Progesterone] | > 500 | > 500 | > 500 | > 500 | > 500 | > 500 | > 500 | > 500 | > 500 | –
12 | O=C(c1ccc(OCCN2CCCCC2)cc1)c1c(-c2ccc(O)cc2)sc2cc(O)ccc12 [Raloxifene, Raloxifene HCl] | 130 | – | – | – | – | – | – | – | – | Kd [1, 19]: 130 µM; Binding to INS (in words) [1]: negligible binding
13 | CC/C(=C(\c1ccccc1)c1ccc(OCCN(C)C)cc1)c1ccccc1 [Tamoxifen, Tamoxifen citrate salt] | > 500 | – | – | – | – | – | – | – | – | Binding to INS (in words) [1]: negligible binding
14 | insulin conjugated to horse-radish peroxidase (ligand) | – | – | – | – | – | – | – | – | – | Kd (IR α 223–234 (human)): > 500 µM; Kd (IR α 233–248 (human)): 0.008 µM; Kd (IR α 392–404 (human)): 0.3 µM; Kd (IR α 424–441 (human)): > 500 µM; Kd (IR α 91–103 (human)): 0.07 µM
